Measured values taken from publication PMC6535779, “A Specific, Glycomimetic Langerin Ligand for Human Langerhans Cell Targeting” (ACS Central Science, 2019).

Assays:
[1] = biological target: T1, Langerin extracellular domain (ECD) (Homo sapiens, UniProt Q9UJ71); assay: 19F R2-filtered NMR reporter displacement assay with Langerin; format: binding; conditions: calculated utilizing the KI value determined for 21
T1 construct: the trimeric Langerin extracellular domain (ECD) was expressed insolubly in E; made in house
T1 sequence (Q9UJ71 65-328 limits assumed): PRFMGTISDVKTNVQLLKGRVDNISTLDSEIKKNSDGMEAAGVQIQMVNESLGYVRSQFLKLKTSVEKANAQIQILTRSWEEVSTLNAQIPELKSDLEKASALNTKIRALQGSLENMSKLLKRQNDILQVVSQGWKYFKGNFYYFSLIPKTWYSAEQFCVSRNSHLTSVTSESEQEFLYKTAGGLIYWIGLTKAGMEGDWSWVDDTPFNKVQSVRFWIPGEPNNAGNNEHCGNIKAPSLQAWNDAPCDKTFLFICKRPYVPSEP
Protocol: (§1) Receptor Expression and Purification
General remarks. Codon-optimized genes for the expression of Langerin and DC-SIGN in E. coli were purchased from GenScript and Life Technologies, respectively. All growth media or chemicals used for receptor expression and purification were purchased from Carl Roth if not stated otherwise.
Langerin extracellular domain. Expression and purification were conducted as previously published14. Briefly, the trimeric Langerin extracellular domain (ECD) was expressed insolubly in E. coli BL21* (DE3) (Invitrogen). Following enzymatic cell lysis, inclusion bodies were harvested and subsequently solubilized. The sample was centrifuged and the Langerin ECD was refolded overnight via rapid dilution. Next, the sample was dialyzed overnight, centrifuged and purified via mannan-agarose affinity chromatography (Sigma Aldrich). For 19F R2-filtered NMR and lipid-enzyme-linked lectin assay (Lipid-ELLA) experiments, the buffer was exchanged to 25 mM Tris with 150 mM NaCl and 5 mM CaCl2 at pH 7.8 using 7 kDa size-exclusion desalting columns (Thermo Scientific). For […]
D2O, 150 mM NaCl and 5 mM CaCl2 at pH 7. The concentration of Langerin ECD was determined via UV spectroscopy (A280, 0.1% = 2.45). Purity and monodispersity of Langerin ECD samples were analyzed via SDS PAGE and DLS. […]
(§2) General remarks. 19F R2-filtered NMR experiments were conducted on a PremiumCompact 600 MHz spectrometer (Agilent). Spectra were processed in MestReNova and data analysis was performed with OriginPro 13, 15. Experiments with the Langerin ECD were performed at a receptor concentration of 50 μM in 25 mM Tris with 10% D2O, 150 mM NaCl and 5 mM CaCl2 at pH 7.8 and 25° C. […]
10% D2O, 150 mM NaCl and 5 mM CaCl2 at pH 7.0 and 25°C. TFA served as an internal reference at a concentration of 50 μM. Apparent relaxation rates R2,obs for the reporter ligand were determined using the CPMG pulse sequence as previously published3-5. […]
KI determination. KI values were determined as previously published for Langerin3. Briefly, titration experiments were conducted at a concentration of 0.1 mM of reporter ligand 24 at five competitor concentrations [I]T. Samples were prepared via serial dilution. For the acids GlcNS, GlcNAc-6-OS and GlcNS-6-OS the pH values were monitored and adjusted to 7.8 if necessary.
General remarks. 15N HSQC NMR experiments were conducted on an Ascend 700 MHz spectrometer (Bruker)16. Spectra were processed in NMRPipe17. Data analysis was performed using CCPN Analysis, MatLab and OriginPro15, 18-19. Experiments with the Langerin CRD were performed at a receptor concentration of 100 μM in 25 mM HEPES with 10% D 2O, 150 mM NaCl and 5 mM CaCl2 at pH 7.8 and 25° C. DSS-d6 served as an internal reference at a concentration of 100 μM. Spectra were referenced via the internal spectrometer reference. Spectra were acquired with 128 increments and 32 scans per increments for 150 μl samples in 3 mm sample tubes. The relaxation delay d1 was set to 1.4 s and the acquisition time tacq was set to 100 ms. The W5 Watergate pulse sequence was used for solvent suppression20. The used resonance assignment for the Langerin CRD has been published […]
KD determination. KD values were determined in titration experiments at six ligand concentrations [L]T. Samples were prepared via serial dilution. Chemical shift perturbations CSPs for Langerin CRD resonances in the fast or fast-to-intermediate exchange regime observed upon titration with ligand were calculated via Equation 121.

[2] = biological target: T2, DC-SIGN CRD (Homo sapiens, UniProt Q9NNX6); assay: 19F R2-filtered NMR reporter displacement assay with DC-SIGN; format: binding
T2 construct: with the DC-SIGN CRD were performed at a receptor concentration of 50 μM; made in house
T2 sequence (Q9NNX6 263-378 limits assumed): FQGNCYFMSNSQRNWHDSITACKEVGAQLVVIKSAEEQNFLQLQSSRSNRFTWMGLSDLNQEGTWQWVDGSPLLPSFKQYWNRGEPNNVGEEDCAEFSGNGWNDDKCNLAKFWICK
Description: Figure S7. 19F R2-filtered NMR assay development with DC-SIGN. […]
substantial line broadeni ng. This phenomenon was utilized to develop the 19F R2-filtered NMR reporter displacement assay following the procedure previously published for Langerin 3. The spectrum in absence of DC -SIGN is processed with an exponential apodization function at 1.8 Hz. b. The interaction between 24 and DC-SIGN was quantified via the transversal relaxation rate R2,obs using the CPMG pulse sequence4-5. Representative decay curves in the presence of DC-SIGN are shown. c. The Ca2+-dependency of the interaction was validated via addition of EDTA. The R2,obs value in absence of DC-SIGN was determined from four independent experiments. The standard error for the experiments in presence of DC-SIGN and EDTA is derived directly from the fitting procedure. d. Relaxation dispersion experiments for 24 in presence of DC-SIGN indicate at negligible exchange contribution R2,ex at a νCPMG value of 500 Hz. In contrast to Langerin, a considerable exchange contribution is observed a lower νCPMG values. e. A representative binding isotherm for the affinity determination for 24 is shown. The KD value was determined from three independent titrations. The obtained K D and additional parameters from the fitting procedure are given in Tab le S3.
(1 picture or pasted object on this page, not shown here)
as §1
General remarks. Codon-optimized genes for the expression of Langerin and DC-SIGN in E. coli were purchased from GenScript and Life Technologies, respectively. All growth media or chemicals used for receptor expression and purification were purchased from Carl Roth if not stated otherwise. […]
Langerin and DC-SIGN carbohydrate recognition domain. Expression and purification were conducted as previously published14. Briefly, the monomeric 15N-labeled Langerin and DC-SIGN carbohydrate recognition domains (CRDs) were expressed insolubly in E. coli BL21* (DE3) (Invitrogen). Following enzymatic cell lysis, inclusion bodies were harvested and subsequently solubilized. The sample was centrifuged and the Langerin and DC-SIGN CRDs were refolded overnight via rapid dilution. Next, the sample was dialyzed overnight, centrifuged and purified via StrepTactin affinity chromatography (Iba). After an additional dialysis step overnight, the sample was centrifuged and the buffer was exchanged to 25 mM HEPES with 150 mM NaCl at pH 7.0 using 7 kDa size-exclusion desalting columns (Thermo Scientific) for 19F R2-filtered and 15N HSQC NMR experiments. The concentration of Langerin and DC -SIGN CRDs was determined via UV spectroscopy (A280, 0.1% = 3.19 and A280, 0.1% = 2.98). Purity and monodispersity of Langerin and DC - SIGN CRD samples were analyzed via SDS PAGE and DLS.
as §2, with “C. Experiments” for “C.”
with the DC-SIGN CRD were performed at a receptor concentration of 50 μM in 25 mM HEPES with 10% D2O, 150 mM NaCl and 5 mM CaCl2 at pH 7.0 and 25°C. TFA served as an internal reference at a concentration of 50 μM. Apparent relaxation rates R2,obs for the reporter ligand were determined using the CPMG pulse sequence as previously published3-5.
Assay development for DC-SIGN. The 19F R2-filtered NMR reporter displacement assay for DC-SIGN was developed following the procedure previously published for Langerin3. Briefly, the KD value and the relaxation rate in bound state R2,b were determined at five concentrations [L]T of reporter ligand 24 in three independent titration experiments. Samples were prepared via serial dilution. The addition of 10 mM EDTA served to validate the Ca2+-dependency of the interaction between DC-SIGN and the reporter ligand. […]

[3] = biological target: T1, Langerin extracellular domain (ECD); set-up: method as in PMID 27458873; conditions: 19F R2-filtered NMR; previously published value; cited from earlier work
[4] = biological target: T3, Langerin CRD (Homo sapiens, UniProt Q9UJ71); set-up: method as in PMID 27458873; conditions: previously published value; cited from earlier work
T3 construct: Experiments with the Langerin CRD were performed at; made in house
T3 sequence (Q9UJ71 202-320 limits assumed): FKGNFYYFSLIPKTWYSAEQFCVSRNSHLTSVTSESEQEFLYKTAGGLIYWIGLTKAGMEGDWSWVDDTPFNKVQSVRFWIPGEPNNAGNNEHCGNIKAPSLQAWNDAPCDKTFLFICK

Relative potency, Langerin [1]: 2.2 | Ki ([2]; 19F R2-filtered NMR, DC-SIGN CRD, pH 7.0, 25 °C): 3 ± 0.3 mM | specificity ([2]; Table 1, Langerin against DC-SIGN, from KI values): 0.67
Structure (SMILES): OC[C@H]1OC(O)[C@@H](O)[C@@H](O)[C@@H]1O (some centres unmarked) [Man, mannose]
Ki [3]: 4.5 ± 0.5 mM | Kd [4]: 6.5 ± 0.2 mM
